Values of other authors in patent publication US10744140B2, “Synergistic nutraceutical beverage formulations providing enhanced thermogenesis, mental clarity, and stamina while minimizing adrenaline and dopamine concentration perturbations associated with withdrawal” (Power Supplements, LLC., priority 2016, dated 2020).

Assays:
[1] = biological target: T1, rat trace amine receptor (rTAR1) (Rattus norvegicus, UniProt Q923Y9); conditions: 1 μM, HEK 293 cells
T1 construct: expressed in transfected cells; host or cells: HEK 293

[2] = tested on: horses
[3] = tested on: dogs and rats
[4] = tested on: young females; conditions: 50 mg, two months
[5] = biological target: T2, rhesus monkey TAAR1 (Macaca mulatta, UniProt Q8HZ64); conditions: HEK293 cells transfected with rhesus monkey TAAR1, CRE-Luc reporter
T2 construct: expressed in transfected cells; host or cells: HEK293 (transient, with CRE-Luc and pGL4.73 reporters)
T2 sequence (Q8HZ64 1-338): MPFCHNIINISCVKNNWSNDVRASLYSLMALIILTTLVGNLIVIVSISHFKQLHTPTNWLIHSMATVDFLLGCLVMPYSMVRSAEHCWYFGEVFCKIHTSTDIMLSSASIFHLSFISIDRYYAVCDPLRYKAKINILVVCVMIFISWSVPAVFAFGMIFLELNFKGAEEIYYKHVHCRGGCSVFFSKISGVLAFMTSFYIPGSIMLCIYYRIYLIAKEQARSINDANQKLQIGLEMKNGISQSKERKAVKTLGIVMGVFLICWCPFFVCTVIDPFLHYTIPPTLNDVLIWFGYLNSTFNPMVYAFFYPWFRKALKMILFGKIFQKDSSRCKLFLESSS

[6] = tested on: primate brain; conditions: acute administration
[7] = tested on: humans; conditions: higher of two single doses (100 mg, 250 mg)
[8] = tested on: DAT (dopamine transporter); conditions: cells expressing TAAR1 and DAT
[9] = tested on: NET (norepinephrine transporter); conditions: cells expressing TAAR1 and NET
[10] = tested on: SERT (serotonin transporter); conditions: cells expressing TAAR1 and SERT

T1 sequence (Q923Y9 whole entry): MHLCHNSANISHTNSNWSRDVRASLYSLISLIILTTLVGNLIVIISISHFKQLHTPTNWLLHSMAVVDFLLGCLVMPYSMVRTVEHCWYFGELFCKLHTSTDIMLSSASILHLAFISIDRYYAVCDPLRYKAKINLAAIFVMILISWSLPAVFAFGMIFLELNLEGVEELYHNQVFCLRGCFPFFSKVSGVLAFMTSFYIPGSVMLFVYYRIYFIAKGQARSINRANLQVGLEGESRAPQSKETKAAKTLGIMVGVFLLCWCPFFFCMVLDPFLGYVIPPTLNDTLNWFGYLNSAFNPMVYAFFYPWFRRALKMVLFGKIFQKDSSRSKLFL

CN(C)CCc1ccc(O)cc1 [hordenine, N,N-dimethyltyramine]
potency in stimulating cAMP production through the rTAR1 [1]: almost identical potency to that of the same concentration of β-phenethylamine | heart rate ([2]; 2 mg/kg intravenous (IV)): doubled | increase of the rate of respiration ([2]; 2 mg/kg intravenous (IV)): 250% | respiratory distress ([2]; 2 mg/kg intravenous (IV)): substantial respiratory distress | time until all effects disappeared ([2]; 2 mg/kg intravenous (IV)): ≤ 30 min | effects after oral dosing ([2]; same dose (2 mg/kg) given orally): did not produce any of the effects seen after parenteral administration | blood pressure [3]: increased systolic and diastolic blood pressure | effect on the heart (strength of contraction) [3]: positive inotropic effect on the heart | movements of the gut [3]: inhibited | peripheral blood flow [3]: increased the volume of peripheral blood flow

Cc1ncc(C[n+]2csc(CCO)c2C)c(N)n1 [thiamine]
attention (decision times in choice reaction time tasks) [4]: improved attention | mood (Profile of Mood States) [4]: improved mood

NCCc1ccc(O)cc1 [tyramine]
potency in stimulating cAMP production through the rTAR1 [1]: slightly higher than that of hordenine | TAAR1 activation (cAMP production) [5]: activates TAAR1

Cc1ncc(CO)c(CO)c1O [vitamin B6, pyridoxine]
serotonin synthesis in the brain [6]: increased serotonin synthesis | dream salience [7]: increase in dream salience

NCC(O)c1ccc(O)cc1 (stereo not shown) [OCT, octopamine]
TAAR1 activation (cAMP production) [5]: activates TAAR1

NCCc1ccccc1 [β-PEA, 2-phenylethylamine]
TAAR1 activation (cAMP production) [5]: activates TAAR1 | uptake of dopamine by its transporter [8]: reduces the uptake of the monoamines | uptake of norepinephrine by its transporter [9]: reduces the uptake of the monoamines | uptake of serotonin by its transporter [10]: reduces the uptake of the monoamines

NCCc1c[nH]c2ccccc12 [TRY, tryptamine]
TAAR1 activation (cAMP production) [5]: activates TAAR1
